Assay results published in ChEMBL document CHEMBL5344418, “Recent developments in antimalarial activities of 4-aminoquinoline derivatives” (Eur J Med Chem, 2023).
pEC50, pIC50: −log10 of the molar value. Blank lines part the entries; values can stand above or below the compound they belong to.

Columns and labels:
[1] = tested on: Plasmodium falciparum; experiment: Antimalarial activity against chloroquine resistant Plasmodium falciparum FcB1/Colombia assessed as inhibition of parasite growth incubated for 24 hrs by liquid scintillation spectrometer analysis; assay type: functional, organism-based
[2] = tested on: Plasmodium falciparum; experiment: Antimalarial activity against Plasmodium falciparum assessed as parasitic growth inhibition; assay type: functional, organism-based
[3] = Cytotoxicity against African green monkey Vero cells by MTT assay; assay type: toxicity, cell-based; details: African green monkey (Chlorocebus sabaeus)
[4] = tested on: Plasmodium falciparum; experiment: Antiplasmodial activity against Plasmodium falciparum NF54; assay type: functional, organism-based
[5] = Cytotoxicity against African green monkey Vero cells assessed as reduction in cell viability incubated for 48 hrs by MTT assay; assay type: toxicity, cell-based; details: chlorocebus sabaeus
[6] = tested on: Plasmodium falciparum; experiment: Antimalarial activity against Plasmodium falciparum 3D7 assessed as reduction in parasite growth incubated for 48 hrs by Giemsa-staining counting based microscopic analysis; assay type: functional, organism-based; details: 3D7, 48 h
[7] = tested on: Plasmodium falciparum; experiment: Antimalarial activity against Plasmodium falciparum K1 assessed as reduction in parasitic growth incubated for 48 hrs by Giemsa-staining counting based microscopic analysis; assay type: functional, organism-based; details: K1, 48 h
[8] = tested on: Plasmodium berghei; experiment: Antimalarial activity against Plasmodium berghei ANKA; assay type: functional, organism-based
[9] = tested on: Plasmodium falciparum; experiment: Antimalarial activity against chloroquine-sensitive Plasmodium falciparum NF54 assessed as reduction in cell growth; assay type: functional, organism-based
[10] = tested on: Plasmodium falciparum; experiment: Antimalarial activity against Plasmodium falciparum Dd2 assessed as reduction in parasitic growth; assay type: functional, organism-based
[11] = tested on: Plasmodium falciparum; experiment: Antiplasmodial activity against Plasmodium falciparum 3D7 assessed as inhibition of parasitic growth; assay type: functional, organism-based
[12] = tested on: Plasmodium falciparum; experiment: Antiplasmodial activity against chloroquine-sensitive Plasmodium falciparum 3D7 infected in human erythrocyte incubated for 72 hrs by SYBR green I staining based fluorescence assay; assay type: functional, organism-based; details: 3D7, Erythrocyte
[13] = tested on: Plasmodium falciparum; experiment: Antiplasmodial activity against Plasmodium falciparum Dd2 infected in human Erythrocyte measured after 72 hrs by SYBR green fluorescence dye based microplate reader analysis; assay type: functional, organism-based
[14] = tested on: Plasmodium falciparum; experiment: Antimalarial activity against chloroquine-resistant Plasmodium falciparum W2 assessed as growth inhibition incubated for 48 hrs by flow cytometry based analysis; assay type: functional, organism-based; details: W2, 48 h
[15] = tested on: Plasmodium falciparum; experiment: Antiplasmodial activity against chloroquine-sensitive Plasmodium falciparum 3D7 assessed as parasitic growth inhibition incubated for 72 hrs by SYBR Green staining based fluorescence analysis; assay type: functional, organism-based; details: 3D7, 72 h
[16] = tested on: Plasmodium falciparum; experiment: Antiplasmodial activity against chloroquine-resistant Plasmodium falciparum W2 assessed as parasitic growth inhibition incubated for 72 hrs by SYBR Green staining based fluorescence analysis; assay type: functional, organism-based; details: W2, 72 h
[17] = Cytotoxicity against African green monkey Vero cells assessed as reduction in cell viability measured after 24 hrs; assay type: toxicity, cell-based; details: African green monkey (Chlorocebus sabaeus)
[18] = tested on: Plasmodium falciparum; experiment: Antimalarial activity against Plasmodium falciparum assessed as reduction in parasite growth incubated for 48 hrs by Giemsa staining based analysis; assay type: functional, organism-based
[19] = tested on: Plasmodium falciparum; experiment: Antimalarial activity against chloroquine-resistant Plasmodium falciparum Dd2 assessed as reduction in parasitic growth incubated for 72 hrs by Giemsa-staining based microscopic analysis; assay type: functional, organism-based; details: Dd2, 72 h
[20] = tested on: Plasmodium falciparum; experiment: Antimalarial activity against chloroquine-sensitive Plasmodium falciparum 3D7 by SYBR green I assay; assay type: functional, organism-based
[21] = tested on: Plasmodium falciparum; experiment: Antimalarial activity against chloroquine-resistant Plasmodium falciparum K1 assessed as reduction in cell growth; assay type: functional, organism-based
[22] = tested on: Plasmodium falciparum; experiment: Antiplasmodial activity against Plasmodium falciparum K1 infected in human Erythrocyte measured after 72 hrs by SYBR green fluorescence dye based microplate reader analysis; assay type: functional, organism-based
[23] = Cytotoxicity against African green monkey Vero cells; assay type: toxicity, cell-based; details: chlorocebus sabaeus
[24] = tested on: Plasmodium falciparum; experiment: Antimalarial activity against Plasmodium falciparum W2 assessed as reduction in parasite growth incubated for 48 hrs by LDH assay; assay type: functional, organism-based; details: W2, 48 h
[25] = tested on: Plasmodium falciparum; experiment: Antimalarial activity against Plasmodium falciparum D6 assessed as reduction in parasite growth incubated for 48 hrs by LDH assay; assay type: functional, organism-based; details: D6, 48 h
[26] = tested on: Plasmodium falciparum; experiment: Antiplasmodial activity against Plasmodium falciparum 3D7 infected in human erythrocytes assessed as growth inhibition after 72 hrs by SYBR Gren-I fluorescent dye based method; assay type: functional, organism-based; details: 3D7, 72 h
[27] = tested on: Plasmodium falciparum; experiment: Antimalarial activity against Plasmodium falciparum K1 assessed as inhibition of parasitic growth; assay type: functional, organism-based
[28] = tested on: HepG2; experiment: Cytotoxicity against human HepG2 cells assessed as cell growth inhibition measured after 72 hrs by MTT assay; assay type: functional
[29] = tested on: Plasmodium falciparum; experiment: Antimalarial activity against drug sensitive Plasmodium falciparum NF54 assessed as inhibition of parasite growth; assay type: functional, organism-based

Compound: CCOP(=O)(CCCN(O)C(=O)CCC(=O)N1CCN(c2ccnc3cc(Cl)ccc23)CC1)OCC
- pIC50 [1]: 5.57

Compound: Clc1ccc2c(Nc3ccncc3)ccnc2c1
- pIC50 [2]: 5.37

Compound: CCOP(=O)(CCCN(O)C(=O)CCC(=O)NCCNc1ccnc2cc(Cl)ccc12)OCC
- pIC50 [1]: 5.38

- pIC50 [4]: 6.57
Compound: CC1(C)c2ccccc2-c2cc(Cl)c(NC(=O)CNCCCNc3ccnc4cc(Cl)ccc34)cc21
- pIC50 [3]: 5.20

Compound: CCOC(=O)c1nn(CCNc2ccnc3cc(Cl)ccc23)c2c1C(c1ccc(CC)cc1)C(C#N)=C(N)O2 (centres undefined)
- CC50 at 48 h [5]: 17.6 µM
- pEC50 [6]: 7.89
- pEC50 [7]: 7.70

- pIC50 [8]: 6.22
Compound: Clc1ccc2c(NC3Cc4ccccc4C3)ccnc2c1

Compound: C#Cc1ccc(-c2cn(CCNc3ccnc4cc(Cl)ccc34)nn2)cc1F
- pIC50 [9]: 6.82

Compound: CC(CCCNCc1ccc(-c2csc3ccc(F)cc23)cc1)Nc1ccnc2cc(Cl)ccc12 (centres undefined)
- pIC50 [10]: 6.73
- pIC50 [11]: 7.08

Compound: CCOC(=O)c1nn(CCNc2ccnc3cc(Cl)ccc23)c2c1C(c1ccc(O)cc1)C(C#N)=C(N)O2 (centres undefined)
- CC50 at 48 h [5]: 9.24 µM
- pEC50 [6]: 7.59
- pEC50 [7]: 5.15

Compound: C[C@H]1[C@H](OC(=O)CCC(=O)NCCNc2ccnc3cc(Cl)ccc23)O[C@@H]2O[C@@]3(C)CC[C@H]4[C@H](C)CC[C@@H]1[C@@]24OO3
- pEC50 [12]: 8.57
- pEC50 [13]: 9.00

Compound: Clc1ccc2c(NCCNCc3csc4ccccc34)ccnc2c1
- pIC50 [10]: 7.84
- pIC50 [11]: < 6.30

Compound: C[C@@H]1CC[C@H]2[C@@H](C)C(=O)O[C@@H]3O[C@@]4(C)CC[C@@H]1[C@]32OO4 [ARTEMISININ]
- CC50 at 48 h [5]: 435 µM
- pEC50 [6]: 9.00
- pEC50 [7]: 9.00
- pIC50 [14]: 8.30

- pIC50 [4]: 6.36
Compound: O=C(NCCCNc1ccnc2cc(Cl)ccc12)C(=O)Nc1cc2c(cc1Cl)-c1ccccc1C2
- pIC50 [3]: 4.58

Compound: Clc1ccc2c(Nc3cccnc3)ccnc2c1
- pIC50 [2]: 5.36

Compound: OB1OCc2ccc(OCc3cn(CCN4CCN(c5ccnc6cc(Cl)ccc56)CC4)nn3)cc21
- pIC50 [15]: 5.27
- pIC50 [16]: 5.31
- IC50 at 24 h [17]: 82.4 µM

Compound: Clc1ccc2c(Nc3nc[nH]n3)ccnc2c1
- pIC50 [18]: 4.37

Compound: Clc1ccc2c(NNc3cccnc3)ccnc2c1
- pIC50 [2]: 5.66

- pIC50 [8]: 6.32
Compound: COc1ccc(OC)c2c1CC(Nc1ccnc3cc(Cl)ccc13)C2

Compound: CCCCCCCCCCCC(=O)NCCCC(C)Nc1ccnc2cc(Cl)ccc12 (centres undefined)
- pIC50 [19]: 3.80
- pIC50 [20]: 7.35

Compound: C#Cc1ccc(-c2cn(CCNc3ccnc4cc(Cl)ccc34)nn2)cc1
- pIC50 [21]: 6.74

Compound: C#CCCCN(CCNc1ccnc2cc(Cl)ccc12)C(=O)CCC(=O)O[C@@H]1O[C@@H]2O[C@@]3(C)CC[C@H]4[C@H](C)CC[C@@H]([C@H]1C)[C@@]24OO3
- pEC50 [12]: 8.46
- pEC50 [22]: 8.89
- pEC50 [13]: 8.80

Compound: N=C(N=C(N)N)SCCCCNc1cc(C(F)(F)F)nc2c(C(F)(F)F)cccc12
- CC50 [23]: > 8.93 µM
- pIC50 [24]: < 5.05
- pIC50 [25]: < 5.05

Compound: C[C@H]1[C@H](OC(=O)CCC(=O)OCCNc2ccnc3cc(Cl)ccc23)O[C@@H]2O[C@@]3(C)CC[C@H]4[C@H](C)CC[C@@H]1[C@@]24OO3
- pEC50 [12]: 8.35
- pEC50 [22]: 8.77
- pEC50 [13]: 8.64

Compound: COc1ccc(/C(C)=N\c2ccccc2Nc2ccnc3cc(Cl)ccc23)cc1OC
- pIC50 [18]: 4.30

- pIC50 [8]: 6.41
Compound: COc1cc2c(cc1OC)CC(Nc1ccnc3cc(Cl)ccc13)C2

Compound: OB1OCc2ccc(OCc3cn(CCNc4ccnc5cc(Cl)ccc45)nn3)cc21
- pIC50 [15]: 5.38
- pIC50 [16]: 5.42
- IC50 at 24 h [17]: > 100 µM

- pIC50 [4]: 6.69
Compound: O=C(CNCCCNc1ccnc2cc(Cl)ccc12)Nc1cc2c(cc1Cl)-c1ccccc1C21CCCC1
- pIC50 [3]: 4.90

Compound: C[C@H]1[C@H](OC(=O)CCC(=O)O)O[C@@H]2O[C@@]3(C)CC[C@H]4[C@H](C)CC[C@@H]1[C@@]24OO3 [ARTESUNATE]
- pIC50 [9]: > 5.28

Compound: CC1(C)[C@@H]2CC=C(CC(=O)Nc3ccnc4cc(Cl)ccc34)[C@H]1C2
- pEC50 [26]: 4.77
- pEC50 [27]: 5.11
- CC50 [28]: 14.3 µM
- pEC50 [29]: 4.67

Compound: N=C(N=C(N)N)SCCNc1cc(C(F)(F)F)nc2c(C(F)(F)F)cccc12
- CC50 [23]: > 9.42 µM
- pIC50 [24]: 5.09
- pIC50 [25]: 5.12
